Results published in ChEMBL document CHEMBL3507680, “University of Dundee, Gates Library screen for HepG2 cell viability”.

Experiment: Human HepG2 cell viability assay in 384 well format
Format: toxicity, cell-based
Parameters: dose 125 nL, time 70.5 hour; concentration not given beside the values
Settings: HepG2 cells, read-out: Inhibition

Row | Compound | cytotoxicity at 70.5 h
1 | CNC(=O)NC(=O)CNC(CC(F)(F)F)c1ccc(F)cc1 (centres undefined) | 4.15%
2 | CC(C(=O)NCCOc1ccccc1)n1cncn1 (centres undefined) | -12.5%
3 | Cc1nn(C)c2nc3c(c(C(=O)/N=c4\[nH]nc(C(C)C)s4)c12)CCC3 | -18.8%
4 | Cc1ccc(C(NC(=O)[C@H]2CC[C@@H](O)CC2)c2cccnc2)cc1C (some centres undefined) | -6.91%
5 | COc1cc(C2CC(=O)Oc3cc(C)[nH]c(=O)c32)ccc1OC(F)F (centres undefined) | 10.5%
6 | Cc1nccn1-c1ccc(=O)n(CCNC(=O)c2ccncc2)n1 | -7.2%
7 | COc1cccc(CCNCc2c(C)nn(C)c2N(C)C)c1 | -4.91%
8 | Cc1ccc(C(=O)N2CC(c3cccnc3)C2)cc1N1CCNC1=O | -7.03%
9 | Cc1cc(C2CCCN(C(=O)COc3cc(C)on3)C2)n[nH]1 (centres undefined) | -3.29%
10 | Cc1noc(C)c1CCC(=O)N1CCCN(C)CC1 | -3.68%
11 | Cc1cccc(C2CCCN2S(=O)(=O)N(C)C)n1 (centres undefined) | -2.59%
12 | CCC(NC(=O)Nc1ccc(OC)c(C)c1)c1noc(C)n1 (centres undefined) | 4.08%
13 | C[C@@H](O)CNC(=O)c1nc(CC(=O)Nc2ccccc2)no1 | -19.3%
14 | CC(C)N(C)Cc1ncn2c1CN(S(=O)(=O)c1cccs1)CCC2 | 13%
15 | Cc1ccc(C)c(OC2CCN(C(=O)c3ccc(O)nc3)CC2)c1 | 2.43%
16 | CCOc1ccc(CNC2CCCN(c3cccnn3)C2)cc1OC (centres undefined) | 4.96%
17 | O=C(NC1CCN(CC2CCCC2)C1)N1CCC(OCC2CC2)CC1 (centres undefined) | 6.83%
18 | CCCn1ncc(C(=O)N2CCN(C(=O)c3ccc[nH]3)CC2)c1C | -7.32%
19 | CN(C)C(=O)c1cncnc1-c1ccc(CNC(=O)C2CC2)cc1 | -11.4%
20 | O=C(CCc1nccs1)N1CCCC(n2cccn2)C1 (centres undefined) | 1.23%
21 | CC(C)C(=O)N1CCC(NC2CCSCC2)C1 (centres undefined) | -4.83%
22 | COCCn1ccc(NC(=O)CNC(=O)CC(C)(C)C)n1 | 27.5%
23 | COc1ccccc1N1CCC(N2CCOCC(CO)C2)CC1 (centres undefined) | -6.73%

Row | Compound | cytotoxicity at 70.5 h
24 | CCc1n[nH]c(C2CN(C(=O)c3cnc(C)s3)CCO2)n1 (centres undefined) | 23.1%
25 | CC(C)N1CCCC(CCCc2ccccn2)(C(=O)O)C1 (centres undefined) | -14.7%
26 | Cc1nc2c(c(=O)[nH]1)CCN(Cc1ccc3c(c1)CCCN3C)C2 | 0.602%
27 | Cc1nc(CC2CCN(Cc3ccc(CCC(C)(C)O)cc3)CC2)no1 | 13.1%
28 | O=c1n(CC2CCCO2)nc(CC2CCNCC2)n1-c1ccccc1 (centres undefined) | -11%
29 | O=C1CC(c2cccnc2)C2(CCN(C(=O)N3CCOCC3)CC2)N1 (centres undefined) | -12.4%
30 | CC(C)CC(C(=O)N1CCCSCC1)N1CCCCC1=O (centres undefined) | -3.18%
31 | COc1cccc2c1OCC(C(=O)N1Cc3ccccc3C1)C2 (centres undefined) | -1.1%
32 | OCc1cc2ccccc2nc1N1CCCCC1 | 31.2%
33 | O=C(c1ccoc1)N1CCC2(CC1)C(=O)Nc1ccccc12 | -2.01%
34 | CCc1ccc(CNC(=O)Nc2cc(C)on2)s1 | -9.95%
35 | CCCOc1ccc(C(=O)N2CC[C@H]3CC[C@@H](C2)N3)cc1Cl | -14.3%
36 | Cc1ccn(-c2ccc(NCc3ccnc(N4CCCCC4)c3)nn2)n1 | -10.5%
37 | COc1ccccc1CN1CCCC2(Cc3ccccc3CNC2=O)C1 (centres undefined) | -1.54%
38 | Cc1ccc(C(=O)N2CCCC(N(C)C(=O)OC(C)(C)C)C2)o1 (centres undefined) | 2.04%
39 | C[C@H]1CN(C(=O)c2cccc(F)c2Cl)CCN1S(C)(=O)=O | -95.8%
40 | CC(C)C(=O)N1CCC(c2nc3ccccn3c2NC(C)(C)C)CC1 | -10.5%
41 | O=C(N[C@@H]1CCCNC1)C1(Oc2ccc(Cl)cc2)CCNCC1 | 13.1%
42 | CCN(CC)C(=O)c1ccn(COc2cc(C)cc(C)c2)n1 | 4.47%
43 | CCc1nc(CN(C)C2CCN(CC(F)(F)F)C2)no1 (centres undefined) | -4.19%
44 | OC1(Cn2ccnc2)CCN(C[C@]2(O)CCCN3CCCC[C@@H]32)CC1 | 11.3%
45 | CCc1noc(C(C)N2CCN(C(=O)CN3CCOCC3)CC2)n1 (centres undefined) | 0.684%
46 | Cc1ccccc1CN1CCN(C(=O)CCn2ccccc2=O)CC1 | -12.1%

Row | Compound | cytotoxicity at 70.5 h
47 | NC(=O)COc1cccc(Cn2cc(Br)cn2)c1 | -1.2%
48 | COC(=O)CSCc1noc(-c2ccc(C)cc2)n1 | 0.48%
49 | COc1ccc(CN2CCCN(C(=O)C(C)n3ccnc3)CC2)cc1 (centres undefined) | -4.32%
50 | c1cncc(CN2CCC3(CC2)CC(c2cccnc2)CO3)c1 (centres undefined) | -6.23%
51 | COc1ccc2c(c1)Cc1c-2nc(N)c(C#N)c1C1CCOC1 (centres undefined) | 2.5%
52 | Cc1ccc(-n2nc(C)cc2N)nn1 | -14.8%
53 | O=C1CCC2(CCCN(Cc3nccs3)C2)N1CC1CC1 (centres undefined) | 10.7%
54 | O=C(c1sccc1Br)N1CCOCC1 | -15.9%
55 | COCCN1C[C@@H]2[C@@H](OC)CCN(Cc3ccsc3)[C@@H]2C1 | -2.68%
56 | CCN(CCCc1ccccc1)CC1(C)Cc2c(N)nc(N)nc2O1 (centres undefined) | 12.9%
57 | COC(=O)[C@@H]1CN(C(=O)Nc2ccccc2)CCN1C(C)=O | -7%
58 | O=C(c1ccccn1)N1CCC2(CC1)COC(COc1cccnc1)C2 (centres undefined) | -7.52%
59 | COc1cc(N2CC[C@@H](O)[C@@H]2Cc2ccccc2)ncn1 | -5.14%
60 | Cc1noc([C@@H]2C[C@H](NC(=O)Nc3cccc(F)c3)CN2C)n1 | 6.23%
61 | COCCn1cc(CC(=O)Nc2nc[nH]n2)c2ccccc21 | -6.37%
62 | O=C(Cc1ccc(F)cc1)NCCc1ccoc1 | -5.69%
63 | Cc1nocc1C(=O)N1CCc2c(CN(C)C)nn(C)c2C1 | -13.6%
64 | Cc1c(C(=O)N(C)c2ccccc2)cccc1N(C)S(C)(=O)=O | -7.07%
65 | c1cnc(N2CCCn3nnc(COCC4CC4)c3C2)nc1 | -1.29%
66 | Cc1ccc(N2CCCN(C(=O)CCc3ccsc3)CC2)nn1 | -6.07%
67 | CN(C)c1ccc(C(=O)N2CCN(CC(C)(C)O)CC2)nn1 | -2.1%
68 | O=C(NCCN1CCOCC1)c1cc2c(s1)CCN2Cc1cccnc1 | -3.99%
69 | CCN(c1ccc(C(=O)NCCN2CCOCC2)cc1)S(=O)(=O)CC | -25.1%

Row | Compound | cytotoxicity at 70.5 h
70 | O=C(c1nc(=O)[nH][nH]1)N1CCC2(CCCCC2)C1 | 20.2%
71 | CN(C)c1cc(CNC(=O)c2ccc(O)nc2)ccn1 | 14.5%
72 | Cc1nnc(CN(CCc2ccccc2)C2CCN(C)CC2)s1 | -13.6%
73 | CCc1cc(N2CCN3CCCCC3C2)n2nccc2n1 (centres undefined) | -8.87%
74 | CC(C)[C@@H](C)NC1CCN(c2ccc(-n3ccnc3)cc2)CC1 | -12.5%
75 | CN1CCN(CCn2cnc3c(F)cccc3c2=O)CC1 | -1.43%
76 | Cc1cnn(CC2CCCN2C(=O)c2cc3c(F)cccc3[nH]2)c1 (centres undefined) | 6.2%
77 | Cc1noc(CNC(=O)C2CSCCC(=O)N2)n1 (centres undefined) | -12.9%
78 | Cc1ccsc1CN1CCCC(CNC(=O)c2ccc(N)nc2)C1 (centres undefined) | -8.08%
79 | CC1CN(CCc2ccncc2)CCO1 (centres undefined) | 3.7%
80 | Cc1cccc(C2(O)CCN(C(=O)c3ccccn3)CC2)c1C | 1.09%
81 | CCOc1cc(F)ccc1NS(=O)(=O)c1cc(C)c(C(=O)O)s1 | -8.13%
82 | CC(O)c1cn(CC2CCN(C(=O)CN(C)C(C)C)CC2)nn1 (centres undefined) | -6.36%
83 | O=C(c1ccccn1)N1CC[C@@H](N2CCOCC2)[C@@H]1Cc1ccccc1 | -10.4%
84 | CC(=O)N1CCC2(CC1)CCN(C(=O)c1ccc(F)c(C(F)(F)F)c1)C2 | -7.91%
85 | COCCCN1C(=O)CC[C@H]2CN(c3ccnc4ccccc34)CC[C@H]21 | -5.09%
86 | COc1coc(CN2CCCC3(CCC(=O)N(C4CC4)C3)C2)cc1=O (centres undefined) | -12.4%
87 | CCN1CCN(C2CCN(Cc3nc4ccccc4o3)CC2)C1=O | -8.04%
88 | Cc1ccccc1C(C#N)NC(=O)c1cccc2c1OCCO2 (centres undefined) | 11%
89 | CCOc1cccc2c1OCC(C(=O)NS(=O)(=O)c1ccc(Cl)cc1)=C2 | 21.1%
90 | CCOC1Sc2nnc(C)n2N=C1c1ccc(Br)cc1 (centres undefined) | -8.58%
91 | Cn1cc(-c2cnc(N3CCOCC3)nc2)cc1C(=O)O | -2.63%
92 | Cc1cnn(CC2CCCCN2Cc2cc(C)on2)c1 (centres undefined) | -18.5%

Row | Compound | cytotoxicity at 70.5 h
93 | Cc1cccc(CN2C[C@@H]3CN(C(=O)NC(C)C)C[C@@H]3C2=O)c1 | -11.4%
94 | Cc1cnc(N2CCCC3(COCCN(c4nccs4)C3)C2)nc1 (centres undefined) | -8.41%
95 | CC(C)C(C)(C#N)NC(=O)CN1CCCN(Cc2ccccc2F)CC1 (centres undefined) | -3.81%
96 | CCN(C(=O)CN1CCCC1c1cccs1)c1ccccc1C (centres undefined) | 30.3%
97 | Cc1c(NC(=O)NCC(C)N2CCOCC2)cccc1OC(F)F (centres undefined) | -0.748%
98 | Cc1csc(CCNC(=O)c2cc3c(nc2O)CCC(C)C3)n1 (centres undefined) | -8.45%
99 | Cc1ncsc1CNC(=O)CCN1CCN(c2ccccn2)CC1 | -8.25%
100 | Cc1cc(C)c(C#N)c(N2CCC(Cc3ccccc3)CC2)n1 | -2.18%
101 | CC(C)(C)OC(=O)N1CCN(C(=O)c2sccc2C2CC2)CC1 | -10%
102 | Cc1nc(C)n(C2CCCN(C(=O)CCCOc3ccccc3)C2)n1 (centres undefined) | 3.66%
103 | CCN(CC1CN(Cc2cccnc2)CCO1)c1cccnn1 (centres undefined) | -0.418%
104 | Cc1nccn1C1CCCN(C(=O)c2cc3c(F)cccc3[nH]2)C1 (centres undefined) | -1.56%
105 | CN1CCN(C2CCN(CC(O)c3ccccc3)CC2)C1=O (centres undefined) | 4.73%
106 | CC(C)NC(=O)NC[C@H]1OC[C@@H](NCc2ccc(S(C)(=O)=O)cc2)[C@@H]1O | -3.26%
107 | CC1CN(C)c2ccccc2N(C(=O)c2ccc(=O)n(C)c2)C1 (centres undefined) | 6.89%
108 | COCCC(=O)N1C[C@@H](c2ccc(F)c(F)c2)[C@@]2(CCCC(=O)N2)C1 | -1.65%
109 | COC(=O)c1cc(C(=O)N2CCCC(C)C2)n(-c2ccccc2)n1 (centres undefined) | -10.2%
110 | CC(NC(=O)N1CCC(OCc2ccccc2)CC1)c1nncn1C (centres undefined) | -11.3%
111 | Cc1n[nH]c2c1C(c1ccc3c(c1)OCCO3)SCC(=O)N2 (centres undefined) | -0.607%
112 | O=C(O)c1cc(NS(=O)(=O)c2cccc(Cl)c2F)ccc1Cl | -5.66%
113 | Cn1nccc1CNC(=O)Cn1nc(C(F)(F)F)cc1C1CC1 | -10.5%
114 | COc1ccc(CCN2CCCC(n3cncn3)C2)cc1 (centres undefined) | -10.1%
